{
  "source": "patent US20210000953A1",
  "about": "“USE OF IMMUNE CHECKPOINT INHIBITORS IN CENTRAL NERVOUS SYSTEMS NEOPLASMS” (Bristol-Myers Squibb Company, priority 2014, published 2021)",
  "key": {"[1]": {"details": "in vivo; cited from earlier work"}, "recurrent GBM": {"test_system": "recurrent GBM", "assay": "Study CA209143 safety lead-in cohorts (Cohort 1, 1b): investigator-assessed tumor response per RANO (brain MRI) and overall survival", "assay_type": "in vivo, human", "procedure": "A randomized, open-label, multicenter, phase 3 study of nivolumab monotherapy versus bevacizumab and a safety study of nivolumab and nivolumab in combination with ipilimumab is conducted in adult (>18 years) subjects with a first recurrence of GBM after treatment with radiotherapy and temozolomide. Since the use of nivolumab and ipilimumab has not previously been studied in subjects with GBM, a safety lead-in (Cohort 1) consisting of approximately 10 subjects in each of two treatment arms are enrolled and randomized to treatment with either Arm N (nivolumab monotherapy) or Arm N+I (nivolumab combined with ipilimumab). Tolerability and safety of a treatment arm is determined after all subjects in the arm completed four doses or discontinued dosing prior to completing four doses. A safety evaluation of Cohort 1 is conducted for each arm based on criteria described herein.\nIn order to better characterize preliminary safety and tolerability for the combination therapy, an additional, non-randomized safety cohort (Cohort 1b) to evaluate an alternate dosing regimen is initiated for the combination therapy (nivolumab 3 mg/kg+ipilimumab 1 mg/kg every 3 weeks for 4 cycles followed by nivolumab 3 mg/kg thereafter). Evaluation of the efficacy of nivolumab+ipilimumab combination therapy will be evaluated separately. Information from subjects treated with combination therapy in Cohort 1 and Cohort 1b will provide a basis for dose selection for future studies in subjects with GBM.\nAll subjects received efficacy assessments with brain MRI with contrast on Day 1 Week 7, Day 1 Week 13, and then one time every 8 weeks (±1 week). MRIs occurred at ±7 days per scheduled visits. Investigators will obtain more frequent follow-up MRI scans as medically indicated.\nThe primary efficacy measure of the study is overall survival (OS). OS is defined as the time between the date of randomization and the date of death due to any cause. OS is followed continuously while subjects are on study drug and every 3 months via in-person or phone contact during the survival follow-up phase of the study.\nInvestigator-assessed tumor response is based upon published RANO criteria. Tumor assessments are performed as shown above in the imaging assessment for the study. Radiologic response was assessed by comparing the pretreatment baseline and on-treatment MRI scans. Radiologic progression was determined by using the smallest tumor measurement at either the pretreatment baseline or after initiation of study medication.\nA complete response required: complete disappearance of all enhancing measurable and nonmeasurable disease sustained for at least 4 weeks; no new lesions; stable or improved nonenhancing (T2/FLAIR) lesions; patients must be off corticosteroids (or on physiologic replacement doses only); and stable or improved clinically. Patients with nonmeasurable disease only cannot have a complete response; the best response possible is stable disease. […]"}, "TILs and PBMCs": {"test_system": "TILs and PBMCs", "assay": "Anti-tumor-associated antigen (TAA) activity, dual-color IFNγ/granzyme B FluoroSpot assay", "assay_type": "cell-based, human", "details": "cells isolated from patients treated with nivolumab monotherapy (FIG. 17)", "procedure": "Analyses were performed on peripheral blood drawn from patients at predetermined time points (FIG. 13) and tumor tissue samples were obtained if resection was performed at the time of progression or suspected progression. Baseline and on-treatment samples were obtained from patients (n=20) randomized 1:1 to receive either nivolumab 3 mg/kg every 2 weeks (Q2W) or nivolumab 1 mg/kg+ipilimumab 3 mg/kg every 3 weeks followed by nivolumab 3 mg/kg Q2W (FIG. 13). Phenotypic, maturation, and proliferation analyses were performed using flow cytometry with population-specific antibody panels (Table 11). Cytokine release analyses were carried out on supernatants from sorted Tregs (CD4+CD25+CD127−)±stimulation (PMA+ionomycin). The anti-tumor-associated antigen (TAA) activity of peripheral blood mononuclear cells (PBMCs) and tumor-infiltrating lymphocytes (TILs) was evaluated. Cells were stimulated with interleukin (IL)-2, IL-15, and TAA peptides; after 9 days of culture with IL-2 and IL-15, cells were restimulated with IL-2, IL-15, and TAA peptides. Production of interferon (IFN)γ/granzyme B was assayed using a dual-color FluoroSpot assay."}, "[2]": {"test_system": "resected GBM tumor tissue", "assay": "Histopathology of tumor tissue resected at suspected progression", "assay_type": "in vivo, human", "description": "In those cases in which radiologic progression cannot be differentiated from pseudoprogression and it is the investigator's opinion that a surgical resection to obtain tumor tissue for histopathology is in the subject's best interests, a surgical resection may be performed following consultation with the BMS medical monitor. Tumor biopsy samples (blocks or slides) must be submitted for central review by a neuropathologist to minimize any inter-observer variation in the histopathologic assessment of progression versus treatment-related changes. If tumor pathology confirms progression, then the subject will be discontinued from study medication per protocol discontinuation criteria and the date of progression will be the day that it was first suspected. […] An MRI after the resection is required prior to treatment continuation. The subject will then continue all on-treatment tumor assessments as per the treatment schedule.\nIn those cases in which radiologic progression cannot be differentiated from pseudoprogression and the subject undergoes a biopsy or diagnostic surgical resection to obtain tumor tissue for histopathology analysis, representative tumor tissue samples will be reviewed locally and submitted for central review by a neuropathologist. If there is discordance between the central and local neuropathologic determination of progression versus treatment-associated changes (pseudoprogression), then a second central neuropathologic review will be performed and serve as the final adjudication of the histopathologic determination. Central review of histopathology will be blinded to the subject treatment arm assignment. Specific instructions will be provided to the investigative sites regarding the requirements for submission of tumor tissue for central neuropathologic review."}, "[3]": {"details": "exploratory analysis, Cohort 1, recurrent GBM, N = 10 per arm, same regimens"}, "[4]": {"details": "investigator-assessed per RANO, Cohort 1, recurrent GBM, N = 10 per arm, nivolumab 3 mg/kg Q2W or nivolumab 1 mg/kg + ipilimumab 3 mg/kg Q3W x4 then nivolumab 3 mg/kg Q2W"}, "[5]": {"details": "case: nivolumab 3 mg/kg, after five treatments"}},
  "note": "“Also recorded” adds a separate entry of the source.",
  "data": [
    {"substance": "nivolumab", "values": [
      {"measurement": "Terminal half life", "setting": "[1]", "value": "up to 25 days"},
      {"measurement": "Patients who experienced stable disease or better", "setting": "recurrent GBM; Cohort 1 nivolumab monotherapy 3 mg/kg, RANO", "value": "6/10"},
      {"measurement": "Time on treatment of the one patient still receiving nivolumab at cutoff", "setting": "recurrent GBM; Cohort 1 nivolumab monotherapy arm, cutoff Sep. 9, 2015", "value": 17.5, "unit": "months"},
      {"measurement": "Brain MRI following three treatments", "setting": "recurrent GBM; case: Cohort 1 Arm N, nivolumab 3 mg/kg monotherapy", "value": "disease progression as per RANO"},
      {"measurement": "Response according to RANO criteria", "setting": "recurrent GBM; case: MGMT methylated, EGFRvIII positive GBM, nivolumab 3 mg/kg", "value": "partial response"},
      {"measurement": "Brain MRI four weeks after resection", "setting": "recurrent GBM; case: nivolumab 3 mg/kg", "value": "did not show tumor growth"},
      {"measurement": "Brain MRI on Aug. 28, 2014", "setting": "recurrent GBM; case: nivolumab 3 mg/kg delayed, dexamethasone 4 mg BID", "value": "improvement with resolution of rim enhancement"},
      {"measurement": "Death, time after randomization", "setting": "recurrent GBM; case: nivolumab 3 mg/kg, treated 227 days", "value": 397, "unit": "days"},
      {"measurement": "Karnofsky performance status at all subsequent visits", "setting": "recurrent GBM; case: nivolumab 3 mg/kg, 90 at baseline", "value": 90},
      {"measurement": "Time to distant disease progression after resuming nivolumab following surgery", "setting": "recurrent GBM; case: nivolumab 3 mg/kg, hippocampus and right hypothalamus, proven on autopsy", "value": 4, "unit": "months"},
      {"measurement": "Overall survival: Median, months (95% CI)", "setting": "recurrent GBM; exploratory analysis, Cohort 1, recurrent GBM, N = 10 per arm, nivolumab 3 mg/kg Q2W or nivolumab 1 mg/kg + ipilimumab 3 mg/kg Q3W x4 then nivolumab 3 mg/kg Q2W, NE: not estimated", "value": "10.5 (4.1-NE)^ months"},
      {"measurement": "Overall survival: 6-month rate (95% CI)", "setting": "recurrent GBM; [3]", "value": "70.0% (32.9-89.2)"},
      {"measurement": "Overall survival: 9-month rate (95% CI)", "setting": "recurrent GBM; [3]", "value": "60.0% (25.3-82.7)"},
      {"measurement": "Overall survival: 12-month rate (95% CI)", "setting": "recurrent GBM; [3]", "value": "40.0% (12.3-67.0)"},
      {"measurement": "Overall survival: Range, months", "setting": "recurrent GBM; [3]", "value": "4.1-17.6 months"},
      {"measurement": "Best overall response: Complete Response", "setting": "recurrent GBM; [4]", "value": "0 n (%)"},
      {"measurement": "Best overall response: Partial Response", "setting": "recurrent GBM; [4]", "value": "1 (10) n (%)"},
      {"measurement": "Best overall response: Progressive Disease", "setting": "recurrent GBM; [4]", "value": "3 (30) n (%)"},
      {"measurement": "Best overall response: Stable Disease", "setting": "recurrent GBM; [4]", "value": "5 (50) n (%)"},
      {"measurement": "Best overall response: Unable to Determine", "setting": "recurrent GBM; [4]", "value": "1 (10) n (%)"},
      {"measurement": "Anti-TAA activity of TILs and PBMCs upon restimulation", "setting": "TILs and PBMCs", "value": "increased anti-TAA activity; also recorded: functional responses to TAAs in both TILs and PBMCs"},
      {"measurement": "Histopathology of the resected tumor", "setting": "[2]; case: after five doses of nivolumab 3 mg/kg Q2W, suspected progression", "value": "immune infiltration consistent with treatment-related changes; also recorded: consistent with significant treatment-related changes"},
      {"measurement": "Pathology review of resection, occipital area", "setting": "[2]; [5]", "value": "viable tumor in samples from the occipital area with infiltrating T-lymphocytes"},
      {"measurement": "Pathology review of resection, periventricular area", "setting": "[2]; [5]", "value": "only necrosis and fibrinous exudate (radiation necrosis) and large aggregates of lymphocytes with no tumor"}
    ]}
  ]
}
